Assay results reported in patent publication US20140107051A1, “ISOFLAVONES FOR TREATING MUCOPOLYSACCHARIDOSES” (INSTYTUT FARMACEUTYCZNY, priority 2005, published 2014).

Tests used:
[1] = test system: cultured human skin fibroblasts derived from normal individuals; assay: 35S-sulphate incorporation test of glycosaminoglycans synthesis, normal cells; assay type: cell-based; details: 30 μM; for activity at 30 µM: Homo sapiens, Skin fibroblast, DMSO control = 1, read-out: Relative GAG synthesis (converted to 1 cell), Normal cells
Experimental: (§1) The activity of isoflavones was evaluated by the measure of glycosaminoglycans synthesis in 35S-sulphate incorporation test comprising incubation of the radiolabelled 35S-sulfate into GAGs in cultured human skin fibroblasts derived from normal individuals (control) and patients affected with mucopolysaccharidose (Murata et al., Arch Biochem Biophys 2003; 413: 229-235).
(§2) The negative control was DMSO (diluent for genistein and all derivatives), the positive control—genistein. […] Experiment with each cell line has been repeated twice, and every measurement has been done twice.

[2] = test system: fibroblasts of patients affected with MPS I; assay: 35S-sulphate incorporation test of glycosaminoglycans synthesis, MPS I cells; assay type: cell-based, human; details: Homo sapiens, Fibroblast, 30 μM; DMSO control = 1; read-out: Relative GAG synthesis (converted to 1 cell), MPS I
Experimental: as §1, §2

[3] = in vitro
[4] = test system: cultured human skin fibroblasts derived from patients affected with mucopolysaccharidose; assay: 35S-sulphate incorporation test of glycosaminoglycans synthesis, different human cell lines / MPS types; assay type: cell-based; details: 30 μM; both cell lines of Table 2
Experimental: as §1, §2

[5] = Proliferation 144 h (Table 4); assay type: cell-based; details: read-out: Proliferation 144 h IC50
[6] = test system: MPS IIIA fibroblasts; assay: Number of lysosomal structures by electron microscopy, MPS IIIA; assay type: cell-based, human; details: 30 μM
[7] = test system: MPS IIIB fibroblasts; assay: Number of lysosomal structures by electron microscopy, MPS IIIB; assay type: cell-based, human; details: 30 μM

Structure (SMILES)	activity at 30 µM [1] [%]	activity at 30 µM [2] [%]	CC50 at 24 h [3] [µM]	Inhibition in relation to genistein, first symbol (normal cells) [1]	influence on GAG synthesis compared with genistein (in words) [4]	IC50 [5] [µM]	CC50 at 48 h [3] [µM]	Number of structures per 100 μm^2 of cellular cross section ± SD, amorphous [6] [per 100 μm^2]	Number of structures per 100 μm^2 of cellular cross section ± SD, complexed [6] [per 100 μm^2]	Number of structures per 100 μm^2 of cellular cross section ± SD, lamellar [6] [per 100 μm^2]	Number of structures per 100 μm^2 of cellular cross section ± SD, total number [6] [per 100 μm^2]	Number of structures per 100 μm^2 of cellular cross section ± SD, amorphous [7] [per 100 μm^2]	Number of structures per 100 μm^2 of cellular cross section ± SD, complexed [7] [per 100 μm^2]	Number of structures per 100 μm^2 of cellular cross section ± SD, lamellar [7] [per 100 μm^2]	Number of structures per 100 μm^2 of cellular cross section ± SD, total number [7] [per 100 μm^2]
Nc1ccccc1C(=O)Oc1ccc(-c2coc3cc(O)cc(O)c3c2=O)cc1 [IFG-001]	84	170	13.9												
CCCCCCCCCCCCCCCC(=O)Oc1cc(O)c2c(=O)c(-c3ccc(O)cc3)coc2c1 [IFG-018]	37	51	41.7	0/0	stronger influence on GAG synthesis than genistein	24.9	23.8								
CC(=O)OCC1OC(Oc2cc(O)c3c(=O)c(-c4ccc(O)cc4)coc3c2)C=CC1OC1OC(COC(C)=O)C(OC(C)=O)C(OC(C)=O)C1OC(C)=O (stereo not drawn) [IFG-021]	57	92	11												
C=CCOc1cc(O)c2c(=O)c(-c3ccc(O)cc3)coc2c1 [IFG-027]	22	57	13.1	0/0	an activity comparable with genistein										
O=C(Oc1cc(O)c2c(=O)c(-c3ccc(O)cc3)coc2c1)c1ccccc1O [IFG-034]	40	93	> 30			22.9	> 30	0.17 ± 0.09	0.27 ± 0.14	0.17 ± 0.09	0.61 ± 0.20	0.15 ± 0.08	0.06 ± 0.05	0.20 ± 0.16	0.41 ± 0.16
C=CCOc1ccc(-c2coc3cc(OCC=C)cc(O)c3c2=O)cc1 [IFG-035]	26	117	22.6	0	an activity comparable with genistein, but only for one cell line										
CC(C)(C)OC(=O)COc1ccc(-c2coc3cc(OCC(=O)OC(C)(C)C)cc(O)c3c2=O)cc1 [IFG-042]	14	49	22	+	stronger influence on GAG synthesis than genistein										
O=c1c(-c2ccc(O)cc2)coc2cc(OCc3ccccc3)cc(O)c12 [IFG-043]	17	44	14.5	+	an activity comparable with genistein										
CC(C)(C)OC(=O)COc1ccc(-c2coc3cc(O)cc(O)c3c2=O)cc1 [IFG-048]	70	92	20.3		an activity comparable with genistein, but only for one cell line										
O=c1c(-c2ccc(O)cc2)coc2cc(OCC3CO3)cc(O)c12 (stereo not drawn) [IFG-050]	10	73	11.6	+	stronger influence on GAG synthesis than genistein										
C=CCOc1ccc(-c2coc3cc(OCc4ccccc4)cc(O)c3c2=O)cc1 [IFG-051]	32	96	14.6	0	an activity comparable with genistein, but only for one cell line										
C=CCOc1cc(O)c2c(=O)c(-c3ccc(OC(=O)c4ccccc4OC(C)=O)cc3)coc2c1 [IFG-052]	75	85	15.8		an activity comparable with genistein, but only for one cell line	12.2	21.5								
CC(C)(C#N)c1cc(COc2ccc(-c3coc4cc(OCc5ccccc5)cc(O)c4c3=O)cc2)cc(C(C)(C)C#N)c1 [IFG-053]	30	52	> 30	0/0	an activity comparable with genistein	53	> 30								
O=C(O)COc1cc(O)c2c(=O)c(-c3ccc(O)cc3)coc2c1 [IFG-054]	30	53	> 30	0/0		> 30	> 30								
O=C(O)CCCC(=O)Oc1ccc(-c2coc3cc(OCc4ccccc4)cc(O)c3c2=O)cc1 [IFG-060]	43	31	14.9	−											
COc1ccc(COc2cc(O)c3c(=O)c(-c4ccc(O)cc4)coc3c2)cc1 [IFG-062]	316	561	12.1												
C=CCOC(=O)Oc1cc(O)c2c(=O)c(-c3ccc(O)cc3)coc2c1 [IFG-063]	75	187	51.5												
CC(C)Oc1ccc(-c2coc3cc(OCc4ccccc4)cc(O)c3c2=O)cc1 [IFG-064]	68	60	6.6		an activity comparable with genistein, but only for one cell line										
CC(C)Oc1ccc(-c2coc3cc(OCc4ccccc4)cc(OC(C)C)c3c2=O)cc1 [IFG-065]	152	97	22.7												
CC(C)Oc1ccc(-c2coc3cc(O)cc(O)c3c2=O)cc1 [IFG-066]	23	44	> 30	0/0		14.6	> 30	0.18 ± 0.19	0.16 ± 0.08	0.13 ± 0.10	0.48 ± 0.17	0.08 ± 0.06	0.11 ± 0.14	0.15 ± 0.10	0.34 ± 0.23
CC(=O)Oc1ccc(-c2coc3cc(OCc4ccccc4)cc(O)c3c2=O)cc1 [IFG-067]	67	61	15.1												
COC(=O)COc1cc(O)c2c(=O)c(-c3ccc(O)cc3)coc2c1 [IFG-070, [5-hydroxy-3-(4-hydroxyphenyl)-4-oxo-4H-chromen-7-yloxy]-acetic acid methyl ester]			> 30			48.1	> 30								
CC(=O)OCCCCCOc1cc(O)c2c(=O)c(-c3ccc(O)cc3)coc2c1 [IFG-071, acetic acid 5-[5-hydroxy-3-(4-hydroxyphenyl)-4-oxo-4H-chromen-7-yloxy]-pentyl ester]			> 30			17.9	57.6	0.25 ± 0.11	0.26 ± 0.09	0.28 ± 0.13	0.79 ± 0.22	0.13 ± 0.09	0.07 ± 0.06	0.07 ± 0.07	0.26 ± 0.13
O=c1c(-c2ccc(O)cc2)coc2cc(OCCCO)cc(O)c12 [IFG-072, 5-hydroxy-3-(4-hydroxyphenyl)-7-(3-hydroxypropoxy)-chromen-4-one]			> 30			14.1	32.5	0.34 ± 0.17	0.28 ± 0.10	0.20 ± 0.10	0.82 ± 0.23	0.14 ± 0.10	0.16 ± 0.08	0.11 ± 0.12	0.41 ± 0.20
O=c1c(-c2ccc(O)cc2)coc2cc(OCCO)cc(O)c12 [IFG-073, 5-hydroxy-7-(2-hydroxyethoxy)-3-(4-hydroxyphenyl)-chromen-4-one]			27.5			16.1	21.7								
